The values below come from publication PMC11310889, “Ribosomal translation of fluorinated non-canonical amino acids for de novo biologically active fluorinated macrocyclic peptides” (Chemical Science, 2024).

Type in all cases: cell-based, Escherichia coli
Assay [1] deals with E. coli W3110. The assay is described as follows: Protein leakage assay. Conditions: E. coli W3110, 5 μM peptide, 15 min, pellet analysed by SDS-PAGE, compared to R9-treated sample (Fig. S10). The procedure:
Thaw the previously preserved E. coli W3110 cells from the -80 °C freezer. Scrape a small amount and inoculate it into 1 mL of LB liquid medium. Incubate overnight in a 37°C shaker. Next day, transfer the culture to fresh LB liquid medium at a 1:100 inoculation ratio and incubate at 37 °C until the OD600 reaches approximately 0.47 to 0.53. Collect 300 μL of the E. coli W3110 cells and centrifuge for 2 min at 13,000 rpm, discarding the supernatant afterward. Resuspend the untreated group in 300 μL of PBS, and the peptide treatment group in 297 μL of ddH2O. Add 3 μL of 0.5 mM different peptides to the treatment group, mix well, and allow to react for 15 min. After the treatment, resuspend all samples in 15 μL of 6×SDS loading buffer and 15 μL of 10% SDS. All samples were heated at 99.9°C for 15 min, followed by 10% SDS-PAGE analysis and staining with Coomassie brilliant blue R250. […]
(§1) Incubate overnight in a 37°C shaker. […]

Assay [2] deals with E. coli W3110. The assay is described as follows: Propidium iodide (PI) assay of membrane permeability. The note with it: E. coli W3110 logarithmic-phase, 15 min treatment with 5 μM peptide, PI 25 μg/mL 15 min (Fig. 5A). The procedure: Propidium Iodide (PI) assay
Thaw the previously preserved E. coli W3110 cells from the -80 °C freezer. Scrape a small amount and inoculate it into 1 mL of LB liquid medium. Culture overnight in a 37°C shaker. Next day, inoculate the strain into fresh LB liquid medium at a 1:100 ratio and incubate at 37 °C until the OD600 reaches approximately 0.47 to 0.53. Take 100 μL of the E. coli W3110 cells and centrifuge for 2 min at 13,000 rpm. Discard the supernatant. For the untreated group, resuspend the cells in 100 μL of PBS. For the peptide treatment group, resuspend the cells in 99 μL of ddH2O and add 1 […]
μL of 0.5 mM of the different peptides. Mix thoroughly and let react for 15 min. After the treatment, take 80 μL of each sample and incubate with PI at a final concentration of 25 μg/mL for 15 min.
After incubation, wash the samples with the same amount of PBS, centrifuge, and resuspend at a 10-fold concentration. Observe the images using a Nikon Eclipse Ci-L Plus microscope. […]
as §1
Centrifuge again at
6100g for 10 min, discard the supernatant, and add 500 μL of ddH2O containing 2.5% glutaraldehyde. Resuspend and fix the cells overnight at 4°C. Centrifuge at 6100g for 10 min, remove the supernatant, and wash twice with ddH2O, letting it stand for 15 min each time, followed by centrifugation at 6100g for 10 min. Discard the supernatant. Dehydrate the sample with ethanol at concentration gradients of 30%, 60%, and 90%, without resuspension, centrifuging at 6100g for […]

Assay [3] concerns E. coli W3110. The assay can be described thus: Scanning electron microscopy of cell morphology. Conditions: E. coli W3110 logarithmic-phase, 4 h treatment at 2 μM and 5 μM (Fig. 5B, S11). The procedure: Thaw the previously preserved E. coli W3110 cells from the -80 °C freezer. […]
Scanning electron microscopy
Thaw the previously preserved E. coli W3110 cells from the -80°C freezer. Scrape a small amount and inoculate it into 1 mL of LB liquid medium. Incubate overnight in a 37°C shaker. The next day, inoculate the strain into fresh LB liquid medium at a 1:100 ratio and incubate at 37°C until the OD600 reaches approximately 0.47 to 0.53. Take 500 μL of E. coli W3110 cells, centrifuge for 10 min at 4000 rpm, and discard the supernatant. Resuspend the cells in 500 μL of PBS, then centrifuge again at 4000 rpm for 10 min and discard the supernatant. Dissolve various macrocyclic peptides in DMSO and dilute to the required concentration. Resuspend the untreated group in 500 μL of PBS.
For the peptide treatment group, resuspend in 495 μL of ddH2O, add 5 μL of 0.2 mM or 0.5 mM peptides, mix well, and let react for 4 h.
After the treament, spot 4 μL of the sample on plates. Perform the first ten-fold dilution and mix, then continue with the second to fifth ten-fold dilutions. Incubate the plates inverted overnight in a 37°C incubator. Scan and count the colonies. For the remaining 492 μL, centrifuge at 6100g for 10 min, discard the supernatant, add 500 μL of ddH2O, and let it stand for 15 min. Centrifuge again at 6100g for 10 min, discard the supernatant, and add 500 μL of ddH2O containing 2.5% glutaraldehyde. Resuspend and fix the cells overnight at 4°C. Centrifuge at 6100g for 10 min, remove the supernatant, and wash twice with ddH2O, letting it stand for 15 min each time, followed by centrifugation at 6100g for 10 min. Discard the supernatant. Dehydrate the sample with ethanol at concentration gradients of 30%, 60%, and 90%, without resuspension, centrifuging at 6100g for […]
10 min and discarding the supernatant after each step. Finally, use 100% ethanol, rest for 15 min, centrifuge at 6100g for 10 min, discard the supernatant, and repeat with 100% ethanol, leaving about 10 μL. Then the critical point was dried and sprayed with gold, and the images were observed by […]
Prediction of binding sites between peptides and the BAM complex
Firstly, the fpocket algorithm was used, a rapid method for pocket prediction based on the three-dimensional structure of BAM complex (PDB ID: 5AYW). This method establishes a grid surrounding the protein, positioning alpha spheres on grid points devoid of spatial conflicts with protein atoms, subsequently utilizing a clustering algorithm to ascertain whether these regions constitute potential binding pockets. Alpha spheres were designated with radii ranging from 3.4Å to 6.2Å, with a prerequisite of at least 15 alpha spheres for a region to be considered a pocket. […]
PepNN evaluated each amino acid for its potentiality as a peptide binding site. […]

Take “Ac-DYLIWYSRSHPFRVCGS(Acp)RRRRRRRRR-NH2 (sidechain bridge or staple) [BAM-D1-R9, BAM-D1 conjugated with cell-penetrating peptide R9]”: the cellular protein leakage entry with E. coli W3110 [1] is given as “partial cellular protein leakage”. For the same substance, the “PI red fluorescence (cell membrane permeability)” value with E. coli W3110 [2] is “notable red fluorescence intensity”. Further, the “morphological changes by scanning electron microscopy” value in the assay with E. coli W3110 [3] is “severe damage in the cell shape and even lysis”.
